From patent US20260232660A1 (TARIS Biomedical LLC, priority 2023, published 2026)
Where two headings read alike, the source gives them in different places. Marks after values point to notes of the source that are not given here.

Experiments:
[1] = test system: orthotopic UM-UC-1 bladder tumors; assay: Continuous bladder perfusion, orthotopic UM-UC-1 bladder cancer model; type: in vivo; settings: 5 days perfusion; p<0.01 at 0.5, p<0.001 at 1.0 and 5 μg/mL nominal urine concentrations
Method: Perfusion studies: The bladders of the study animals were cannulated on Day 1 and the animals were allowed to recover for 3 days. On Day 5, UM-UC-1 cells (2×10^6 cells) were injected into the lateral wall of each bladder. […] Based on the in vitro results, target urine concentrations of 0.5, 1.0, and 5.0 μg/mL were used in the perfusion experiments. Body weight, daily urine production, and daily water consumption were recorded. At necropsy, a plasma sample, bladder photographs, and bladder weight measurements were recorded.
The percent reduction in relative tumor weight between the control group and the drug perfusion groups was determined as an initial measure of efficacy.

[2] = first 6 hours
Method: Solution formulations were prepared at various strengths in order to administer 0.5 mL volume to each rat bladder to dose 2, 6, and 18 mg/kg. Corresponding doses in nominal amount of drug were 0.5, 1.5, and 4.5 mg, respectively. After 1 hour of post-installation, rats were transferred to metabolic cages for collection of samples for PK determination. […] At each blood sampling time point, bladder samples were taken from each rat for drug analysis. In addition, bladders collected at 96 hours in the 18 mg/kg dose (high-dose) group were microscopically evaluated. Urine collections were limited to initial 0-6 hours post dose from all rats.

[3] = rat, in vivo
From the text: Rat bladders (5 groups of rats, n=3/group) were surgically catheterized under anesthesia and the catheter was externalized, tunneled subcutaneously, and connected to a vascular access harness (VAH) in the neck. Rats were transferred to individual metabolic cages with free access to food and water during the 1-week post-surgery recovery period. […] Plasma and bladder samples were collected at all time points.

[4] = test system: orthotopic RT-112 bladder tumor
[5] = in vivo; settings: female, Domestic Yorkshire Crossbred, pig, urine, other: continuous intravesical infusion, 0.22 mg/kg/day
From the text: On Day ~7 a catheter was surgically placed in the bladder of each animal. The distal end of the catheter was anchored to a subcutaneous site and attached to a vascular access port (VAP). The port was secured, and the animals were allowed to recover. Each animal was subsequently fitted with a portable infusion pump that was attached to the bladder catheter via the VAP. […] All excreted urine was collected in 24-hour intervals through Day 6 or 8. Blood samples were collected daily on study Days 1 to 8. Bladder tissue samples were collected from each animal at necropsy.

In the case of `COc1cc(OC)cc(N(CCNC(C)C)c2ccc3ncc(-c4cnn(C)c4)nc3c2)c1` [erdafitinib, N-(3,5-dimethoxyphenyl)-N′-(1-methylethyl)-N-[3-(1-methyl-1H-pyrazol-4-yl)quinoxalin-6-yl]ethane-1,2-diamine], the “Bladder weight (tumor growth) vs vehicle control” value [1] is reported as “significant dose-related decrease in bladder weight”, the “Percentage of compound eliminated as unchanged drug in the urine” value (from here on “Percentage … as unchanged drug in the urine”) ([2]; 2 mg/kg intravesical) is reported as 23.5% and the “Percentage … as unchanged drug in the urine” value ([2]; 6 mg/kg intravesical) is reported as 19%. The “Percentage … as unchanged drug in the urine” value ([2]; 18 mg/kg intravesical) was 50.3%, the C72 h ([3]; female, Sprague-Dawley, 72 h) was 2,420^a ng/mL and the C96 h [3] was “BQL”. For the same compound, the C120 h [3] was “BQL”, the “Bladder weight decrease vs vehicle control” value ([4]; 1.0 μg/mL perfusate concentration, p<0.05) was “significant bladder weight reduction” and the “Body weight loss, maximum mean value” ([4]; erdafitinib-treated group, Day 11) was “up to −3%”. It also gave a concentration at 8 day [5] of 1270 ng/mL.
